Results reported in ChEMBL document CHEMBL5291721, “A preclinical secondary pharmacology resource illuminates target-adverse drug reaction associations of marketed drugs” (Nat Commun, 2023).

Columns and labels:
Acetylcholinesterase = Acetylcholinesterase (Homo sapiens, UniProt P22303); type: functional
[1] = molecular target: T1, Alpha-1A adrenergic receptor (Homo sapiens, UniProt P35348); type: functional, cell-based
T1 sequence (P35348 whole entry): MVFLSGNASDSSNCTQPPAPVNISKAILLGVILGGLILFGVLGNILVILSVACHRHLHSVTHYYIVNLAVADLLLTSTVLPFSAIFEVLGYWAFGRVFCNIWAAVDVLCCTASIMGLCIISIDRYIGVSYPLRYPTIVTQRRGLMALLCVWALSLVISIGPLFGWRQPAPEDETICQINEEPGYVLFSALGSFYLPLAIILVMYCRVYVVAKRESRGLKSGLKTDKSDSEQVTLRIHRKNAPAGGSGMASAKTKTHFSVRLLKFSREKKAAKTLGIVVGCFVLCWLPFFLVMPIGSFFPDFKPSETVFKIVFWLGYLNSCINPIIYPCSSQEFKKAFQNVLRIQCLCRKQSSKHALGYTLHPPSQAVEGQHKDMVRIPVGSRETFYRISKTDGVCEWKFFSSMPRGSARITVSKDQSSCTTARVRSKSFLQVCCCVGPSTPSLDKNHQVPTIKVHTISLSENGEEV

[2] = molecular target: T2, Alpha-2A adrenergic receptor (Homo sapiens, UniProt P08913)
T2 sequence (P08913 whole entry): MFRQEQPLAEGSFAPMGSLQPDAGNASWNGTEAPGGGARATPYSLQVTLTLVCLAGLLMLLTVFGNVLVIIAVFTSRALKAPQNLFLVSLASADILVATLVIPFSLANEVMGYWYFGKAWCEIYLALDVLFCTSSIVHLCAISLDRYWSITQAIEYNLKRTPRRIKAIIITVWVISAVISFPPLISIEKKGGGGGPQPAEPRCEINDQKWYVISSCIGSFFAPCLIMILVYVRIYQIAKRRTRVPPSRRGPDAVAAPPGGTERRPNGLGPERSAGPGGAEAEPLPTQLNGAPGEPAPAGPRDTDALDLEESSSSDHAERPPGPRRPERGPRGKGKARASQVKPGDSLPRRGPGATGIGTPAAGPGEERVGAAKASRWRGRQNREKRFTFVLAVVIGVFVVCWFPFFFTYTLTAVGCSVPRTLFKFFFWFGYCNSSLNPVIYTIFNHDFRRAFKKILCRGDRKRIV

[3] = molecular target: T3, Muscarinic acetylcholine receptor M2 (Homo sapiens, UniProt P08172)
T3 sequence (P08172 whole entry): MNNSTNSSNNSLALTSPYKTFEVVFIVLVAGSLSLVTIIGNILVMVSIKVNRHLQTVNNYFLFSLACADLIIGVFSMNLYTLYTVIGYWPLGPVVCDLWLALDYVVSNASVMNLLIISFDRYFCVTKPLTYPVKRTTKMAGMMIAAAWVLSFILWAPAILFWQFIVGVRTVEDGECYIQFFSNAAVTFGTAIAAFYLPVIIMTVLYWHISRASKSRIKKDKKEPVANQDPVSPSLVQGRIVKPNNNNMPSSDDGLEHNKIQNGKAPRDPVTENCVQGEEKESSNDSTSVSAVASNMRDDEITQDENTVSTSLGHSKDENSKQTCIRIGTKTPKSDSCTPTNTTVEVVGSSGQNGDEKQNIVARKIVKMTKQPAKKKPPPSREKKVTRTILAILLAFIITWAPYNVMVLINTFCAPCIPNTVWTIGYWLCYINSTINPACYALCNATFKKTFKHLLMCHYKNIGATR

D(1A) dopamine receptor = D(1A) dopamine receptor (Homo sapiens, UniProt P21728)
Prothrombin = Prothrombin (Homo sapiens, UniProt P00734); type: functional
Histamine H3 receptor = Histamine H3 receptor (Homo sapiens, UniProt Q9Y5N1)
[4] = molecular target: 5-hydroxytryptamine receptor 2B (Homo sapiens, UniProt P41595); type: functional, cell-based
[5] = molecular target: Voltage-gated inwardly rectifying potassium channel KCNH2 (Homo sapiens, UniProt Q12809); type: functional
Mu-type opioid receptor = Mu-type opioid receptor (Homo sapiens, UniProt P35372)
[6] = molecular target: cGMP-inhibited 3',5'-cyclic phosphodiesterase 3A (Homo sapiens, UniProt Q14432); type: functional
[7] = molecular target: 3',5'-cyclic-AMP phosphodiesterase 4A (Homo sapiens, UniProt P27815); type: functional
Progesterone receptor = molecular target: T4, Progesterone receptor (Homo sapiens, UniProt P06401)
T4 sequence (P06401 whole entry): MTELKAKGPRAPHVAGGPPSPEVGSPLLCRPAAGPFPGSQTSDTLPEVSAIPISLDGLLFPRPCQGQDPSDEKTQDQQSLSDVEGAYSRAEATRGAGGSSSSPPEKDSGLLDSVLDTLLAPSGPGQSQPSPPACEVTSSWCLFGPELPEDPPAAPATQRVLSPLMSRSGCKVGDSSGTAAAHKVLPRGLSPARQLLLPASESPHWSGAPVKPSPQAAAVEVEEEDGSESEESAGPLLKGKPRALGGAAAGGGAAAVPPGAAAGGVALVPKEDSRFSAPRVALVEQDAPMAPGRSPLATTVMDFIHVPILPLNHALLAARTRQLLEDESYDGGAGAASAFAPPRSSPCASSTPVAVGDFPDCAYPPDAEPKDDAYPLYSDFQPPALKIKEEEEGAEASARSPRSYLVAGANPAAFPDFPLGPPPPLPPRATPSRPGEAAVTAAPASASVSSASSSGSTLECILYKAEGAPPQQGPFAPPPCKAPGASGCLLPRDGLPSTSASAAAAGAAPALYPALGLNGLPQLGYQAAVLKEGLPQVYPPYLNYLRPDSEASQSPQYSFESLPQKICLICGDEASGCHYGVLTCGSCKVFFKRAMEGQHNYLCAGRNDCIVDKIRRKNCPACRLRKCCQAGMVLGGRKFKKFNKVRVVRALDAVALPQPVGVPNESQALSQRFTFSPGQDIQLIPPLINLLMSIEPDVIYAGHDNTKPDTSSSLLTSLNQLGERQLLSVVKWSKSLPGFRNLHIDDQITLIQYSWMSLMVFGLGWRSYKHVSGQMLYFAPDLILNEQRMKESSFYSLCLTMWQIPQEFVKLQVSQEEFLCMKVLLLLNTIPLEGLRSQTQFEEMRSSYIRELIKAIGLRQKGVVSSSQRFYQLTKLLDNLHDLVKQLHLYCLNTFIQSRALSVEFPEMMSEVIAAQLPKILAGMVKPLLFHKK

[8] = molecular target: Prostaglandin G/H synthase 1 (Homo sapiens, UniProt P23219); type: functional
[9] = molecular target: Sodium-dependent dopamine transporter (Homo sapiens, UniProt Q01959)
Also: assay procedure not described here.

5-hydroxytryptamine receptor 2B, sequence (P41595 whole entry): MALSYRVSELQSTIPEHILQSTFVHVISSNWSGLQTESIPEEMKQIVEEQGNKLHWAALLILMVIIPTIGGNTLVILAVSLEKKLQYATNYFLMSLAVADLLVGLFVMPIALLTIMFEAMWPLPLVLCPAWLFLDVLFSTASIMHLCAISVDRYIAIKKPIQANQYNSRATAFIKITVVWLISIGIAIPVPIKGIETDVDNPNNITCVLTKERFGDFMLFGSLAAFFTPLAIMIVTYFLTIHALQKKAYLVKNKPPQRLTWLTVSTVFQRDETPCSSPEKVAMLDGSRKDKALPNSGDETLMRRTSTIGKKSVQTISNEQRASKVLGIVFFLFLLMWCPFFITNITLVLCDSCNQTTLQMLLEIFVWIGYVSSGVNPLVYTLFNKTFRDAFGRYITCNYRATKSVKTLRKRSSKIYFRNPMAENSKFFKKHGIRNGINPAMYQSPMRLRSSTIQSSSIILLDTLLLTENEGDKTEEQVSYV
Prostaglandin G/H synthase 1, sequence (P23219 whole entry): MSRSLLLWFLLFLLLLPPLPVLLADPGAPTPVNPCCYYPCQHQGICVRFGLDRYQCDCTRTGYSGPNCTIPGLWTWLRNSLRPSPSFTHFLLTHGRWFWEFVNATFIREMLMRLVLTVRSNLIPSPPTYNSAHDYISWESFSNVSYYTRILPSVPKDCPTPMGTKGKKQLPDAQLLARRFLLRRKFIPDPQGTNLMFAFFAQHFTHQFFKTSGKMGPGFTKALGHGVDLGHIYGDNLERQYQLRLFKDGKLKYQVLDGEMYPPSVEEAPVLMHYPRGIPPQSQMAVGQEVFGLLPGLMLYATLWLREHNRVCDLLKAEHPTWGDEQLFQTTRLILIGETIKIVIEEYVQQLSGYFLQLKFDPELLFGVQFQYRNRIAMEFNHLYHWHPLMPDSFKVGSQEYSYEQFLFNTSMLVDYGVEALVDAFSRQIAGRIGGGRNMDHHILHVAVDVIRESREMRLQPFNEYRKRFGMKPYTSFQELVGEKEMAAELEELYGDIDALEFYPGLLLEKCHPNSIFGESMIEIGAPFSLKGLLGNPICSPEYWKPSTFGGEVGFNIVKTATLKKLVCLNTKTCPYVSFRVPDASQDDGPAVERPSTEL
D(1A) dopamine receptor, sequence (P21728 whole entry): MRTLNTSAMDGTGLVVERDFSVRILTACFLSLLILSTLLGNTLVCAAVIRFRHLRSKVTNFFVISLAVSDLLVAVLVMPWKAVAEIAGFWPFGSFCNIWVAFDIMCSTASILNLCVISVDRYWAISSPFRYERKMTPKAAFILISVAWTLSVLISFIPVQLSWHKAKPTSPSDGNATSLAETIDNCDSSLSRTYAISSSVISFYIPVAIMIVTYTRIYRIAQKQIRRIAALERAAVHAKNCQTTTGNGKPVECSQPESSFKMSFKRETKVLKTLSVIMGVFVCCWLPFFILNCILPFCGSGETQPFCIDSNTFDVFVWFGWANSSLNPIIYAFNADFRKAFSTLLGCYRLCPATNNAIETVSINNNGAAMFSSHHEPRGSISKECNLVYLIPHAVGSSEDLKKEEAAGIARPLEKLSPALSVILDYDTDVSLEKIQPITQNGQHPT
Mu-type opioid receptor, sequence (P35372 whole entry): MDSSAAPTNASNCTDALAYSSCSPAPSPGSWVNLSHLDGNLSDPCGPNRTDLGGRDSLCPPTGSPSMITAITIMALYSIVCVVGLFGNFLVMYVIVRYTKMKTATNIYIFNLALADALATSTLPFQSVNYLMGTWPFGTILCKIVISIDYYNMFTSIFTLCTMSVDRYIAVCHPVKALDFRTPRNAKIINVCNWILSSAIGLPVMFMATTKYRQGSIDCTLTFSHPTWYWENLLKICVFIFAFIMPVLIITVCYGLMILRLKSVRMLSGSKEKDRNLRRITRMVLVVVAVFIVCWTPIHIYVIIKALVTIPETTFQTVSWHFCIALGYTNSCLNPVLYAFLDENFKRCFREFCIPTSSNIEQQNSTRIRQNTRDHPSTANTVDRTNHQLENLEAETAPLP
Voltage-gated inwardly rectifying potassium channel KCNH2, sequence (Q12809 whole entry): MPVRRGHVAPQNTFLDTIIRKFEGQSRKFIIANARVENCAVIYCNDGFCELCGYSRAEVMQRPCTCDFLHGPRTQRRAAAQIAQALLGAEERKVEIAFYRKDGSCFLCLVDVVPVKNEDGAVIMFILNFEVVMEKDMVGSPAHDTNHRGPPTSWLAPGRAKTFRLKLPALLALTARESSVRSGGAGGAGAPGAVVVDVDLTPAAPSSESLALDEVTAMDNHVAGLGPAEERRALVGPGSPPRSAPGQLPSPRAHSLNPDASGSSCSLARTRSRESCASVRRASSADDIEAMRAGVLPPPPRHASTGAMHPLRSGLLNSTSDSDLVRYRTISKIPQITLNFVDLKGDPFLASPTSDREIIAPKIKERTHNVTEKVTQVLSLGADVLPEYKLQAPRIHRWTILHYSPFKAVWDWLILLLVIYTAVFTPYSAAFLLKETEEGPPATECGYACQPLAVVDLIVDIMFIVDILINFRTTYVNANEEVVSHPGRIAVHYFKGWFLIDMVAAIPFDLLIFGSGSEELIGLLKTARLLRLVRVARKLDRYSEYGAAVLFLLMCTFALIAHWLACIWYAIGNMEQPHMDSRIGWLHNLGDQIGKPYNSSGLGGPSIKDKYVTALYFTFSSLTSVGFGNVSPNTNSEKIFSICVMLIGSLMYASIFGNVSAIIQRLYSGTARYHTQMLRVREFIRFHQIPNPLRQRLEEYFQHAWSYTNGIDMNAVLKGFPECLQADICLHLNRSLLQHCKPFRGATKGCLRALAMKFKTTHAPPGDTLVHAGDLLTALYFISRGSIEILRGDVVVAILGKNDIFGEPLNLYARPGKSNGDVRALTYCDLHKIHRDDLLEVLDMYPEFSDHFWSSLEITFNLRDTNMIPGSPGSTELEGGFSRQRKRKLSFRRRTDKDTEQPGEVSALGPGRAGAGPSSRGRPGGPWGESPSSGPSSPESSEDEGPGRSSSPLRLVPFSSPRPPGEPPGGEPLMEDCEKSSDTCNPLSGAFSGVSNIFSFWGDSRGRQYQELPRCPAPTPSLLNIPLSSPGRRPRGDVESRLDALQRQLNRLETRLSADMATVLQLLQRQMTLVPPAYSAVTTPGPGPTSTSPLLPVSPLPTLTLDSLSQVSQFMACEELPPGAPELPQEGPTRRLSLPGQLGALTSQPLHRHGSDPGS
cGMP-inhibited 3',5'-cyclic phosphodiesterase 3A, sequence (Q14432 whole entry): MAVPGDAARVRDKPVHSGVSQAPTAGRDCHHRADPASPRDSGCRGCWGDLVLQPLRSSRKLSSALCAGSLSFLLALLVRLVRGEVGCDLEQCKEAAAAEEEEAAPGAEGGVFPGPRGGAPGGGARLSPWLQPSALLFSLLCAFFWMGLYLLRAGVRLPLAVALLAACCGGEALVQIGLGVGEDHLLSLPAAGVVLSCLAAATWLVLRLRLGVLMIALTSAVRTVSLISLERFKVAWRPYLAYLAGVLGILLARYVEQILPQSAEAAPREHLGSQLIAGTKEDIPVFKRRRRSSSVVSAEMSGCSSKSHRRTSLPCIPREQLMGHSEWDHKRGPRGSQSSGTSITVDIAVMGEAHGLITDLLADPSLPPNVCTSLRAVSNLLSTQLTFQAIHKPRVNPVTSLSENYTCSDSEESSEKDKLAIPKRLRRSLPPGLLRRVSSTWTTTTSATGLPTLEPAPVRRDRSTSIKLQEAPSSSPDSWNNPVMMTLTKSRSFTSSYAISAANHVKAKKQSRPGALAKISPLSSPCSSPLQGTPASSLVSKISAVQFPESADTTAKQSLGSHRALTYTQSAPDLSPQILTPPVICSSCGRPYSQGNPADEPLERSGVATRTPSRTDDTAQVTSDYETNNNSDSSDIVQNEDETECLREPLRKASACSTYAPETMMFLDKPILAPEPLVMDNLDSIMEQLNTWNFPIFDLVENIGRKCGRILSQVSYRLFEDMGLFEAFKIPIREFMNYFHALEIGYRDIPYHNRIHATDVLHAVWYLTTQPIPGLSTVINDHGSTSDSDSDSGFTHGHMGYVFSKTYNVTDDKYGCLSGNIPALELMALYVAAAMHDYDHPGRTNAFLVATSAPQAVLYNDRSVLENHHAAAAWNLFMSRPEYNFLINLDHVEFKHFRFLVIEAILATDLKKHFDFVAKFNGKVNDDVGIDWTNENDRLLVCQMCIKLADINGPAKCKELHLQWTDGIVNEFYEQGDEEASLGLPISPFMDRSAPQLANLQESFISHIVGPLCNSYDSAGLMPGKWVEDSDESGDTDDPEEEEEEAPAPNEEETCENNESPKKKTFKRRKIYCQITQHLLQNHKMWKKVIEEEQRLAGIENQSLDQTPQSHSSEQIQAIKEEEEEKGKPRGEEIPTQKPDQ
Acetylcholinesterase, sequence (P22303 whole entry): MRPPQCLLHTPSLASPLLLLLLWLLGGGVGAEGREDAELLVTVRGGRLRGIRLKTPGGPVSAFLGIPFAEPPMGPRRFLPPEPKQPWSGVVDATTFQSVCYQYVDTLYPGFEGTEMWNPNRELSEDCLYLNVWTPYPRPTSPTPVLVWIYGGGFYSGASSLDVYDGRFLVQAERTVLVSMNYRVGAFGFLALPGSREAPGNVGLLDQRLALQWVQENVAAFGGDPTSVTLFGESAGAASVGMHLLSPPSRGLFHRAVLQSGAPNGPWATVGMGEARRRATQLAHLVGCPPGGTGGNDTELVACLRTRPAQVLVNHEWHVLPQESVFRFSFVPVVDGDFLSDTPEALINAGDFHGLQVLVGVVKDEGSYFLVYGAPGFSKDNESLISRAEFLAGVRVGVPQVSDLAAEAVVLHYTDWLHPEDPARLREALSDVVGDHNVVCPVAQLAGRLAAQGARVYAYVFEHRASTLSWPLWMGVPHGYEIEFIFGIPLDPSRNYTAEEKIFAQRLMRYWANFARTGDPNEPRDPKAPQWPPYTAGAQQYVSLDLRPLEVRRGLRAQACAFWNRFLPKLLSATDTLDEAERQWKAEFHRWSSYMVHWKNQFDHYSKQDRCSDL

Row | Structure (SMILES) | AC50 (Acetylcholinesterase) | AC50 [1] | AC50 [2] | AC50 [3] | AC50 (D(1A) dopamine receptor) | AC50 (Prothrombin) | AC50 (Histamine H3 receptor) | AC50 [4] | AC50 [5] | AC50 (Mu-type opioid receptor) | AC50 [6] | AC50 [7] | AC50 (Progesterone receptor) | AC50 [8] | AC50 [9]
1 | COc1ccc2[nH]c([S+]([O-])Cc3ncc(C)c(OC)c3C)nc2c1 (stereo not given) [OMEPRAZOLE] | > 30 µM | > 30 µM | > 30 µM | 15.7 µM | > 30 µM | > 30 µM | > 30 µM | > 30 µM | 17 µM | 12 µM | > 30 µM | > 30 µM | > 30 µM | 5.76 µM | > 30 µM
2 | CCCCC1C(=O)N(c2ccccc2)N(c2ccc(O)cc2)C1=O (stereo not given) [OXYPHENBUTAZONE ANHYDROUS] | > 30 µM | > 30 µM | > 30 µM | > 30 µM | > 30 µM | > 30 µM | > 30 µM | > 30 µM | > 30 µM | > 30 µM | > 30 µM | > 30 µM | > 30 µM | 7.8 µM | > 30 µM
3 | O=C(O)CN(CCN(CC(=O)O)CC(=O)O)CCN(CC(=O)O)CC(=O)O [PENTETIC ACID] | > 30 µM | > 30 µM | 1.32 µM | 3.91 µM | 8.71 µM | > 30 µM | 19.8 µM | > 30 µM | > 30 µM | > 30 µM | > 30 µM | > 30 µM | > 30 µM | > 30 µM | 6.51 µM
4 | Nc1cccc2c1C(=O)N(C1CCC(=O)NC1=O)C2=O (stereo not given) [POMALIDOMIDE] | > 30 µM | > 30 µM | > 30 µM | > 30 µM | > 30 µM | > 30 µM | > 30 µM | > 30 µM | > 30 µM | > 30 µM | > 30 µM | > 30 µM | > 30 µM | > 30 µM | > 30 µM
5 | C[Se]CC[C@H](N)C(=O)O [SELENOMETHIONINE] | > 30 µM | > 30 µM | > 30 µM | > 30 µM | > 30 µM | > 30 µM | > 30 µM | > 30 µM | > 30 µM | > 30 µM | > 30 µM | > 30 µM | > 30 µM | > 30 µM | > 30 µM
